Results from patent US20160333419A1, “GENE SIGNATURES ASSOCIATED WITH SENSITIVITY TO MDM2 INHIBITORS” (DAIICHI SANKYO COMPANY, LIMITED, priority 2014, published 2016).

Experiments:
[1] = system: RD; assay: OncoPanel cytotoxicity assay; type: cell-based; details: Homo sapiens, 72 hour incubation
Summary of the method: (§1)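 Cells grown in RPMI 1640 with 10% FBS (or a special medium) at 37° C, 5% CO2 were treated 24 hours after seeding for 72 hours with 10 concentrations (3.16-fold dilutions, 0.1% DMSO final). Nuclei were dye-stained and imaged; IC50 was fit from percent of control relative cell count.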

[2] = system: SW-13; assay: OncoPanel cytotoxicity assay; type: cell-based; details: Homo sapiens, SW13, 72 hour incubation
Summary of the method: as §1

[3] = system: CTG-0069 Colorectal; assay: Champions TumorGraft model, tumor growth inhibition; type: in vivo, mice; details: 100 mg/kg/dose p.o./qd × 10, TGI evaluation Day 11
Source text: (§2) Patient-derived xenograft models (Champions TumorGraftTM; Champions Oncology, Inc., Hackensack, N.J.) were used. Champions TumorGraftsTM provide a highly focused, accelerated translational platform, which is based upon the implantation of primary human tumors in immune-deficient mice followed by propagation of the resulting low-passage Champions TumorGraftsTM in a manner that preserves the biological characteristics of the original human tumor. […] The TumorGraftsTM models allow a comparison of gene expression analysis of patients' cancer samples and Champions TumorGraftTM samples by microarray expression analysis. Large numbers (e.g., 30,000) of genes are analyzed. […] Female immunocompromised nu/nu mice (Harlan) between 6-9 weeks of age were housed on irradiated […]-enriched 1⁄8'' corncob bedding ([…]) in individual HEPA ventilated cages (Innocage® IVC, Innovive USA) and were kept on a 12-hour light-dark cycle at 68-74° F. (20-23° C.) and 30-70% humidity. Animals were fed water ad libitum (reverse osmosis, 2 ppm C12) and an irradiated Test rodent diet (Teklad 2919) consisting of 19% protein, 9% fat, and 4% fiber. Animals were implanted bilaterally in the flank region with tumor fragments harvested from tumored host animals, each implanted from a specific passage lot. Pre-study tumor volumes were recorded for each experiment beginning approximately one week prior to its estimated start date. When tumors reached approximately 125-250 mm^3, animals were matched by tumor volume into treatment and control groups, and dosing was initiated (Day 0). Animals in all studies were tagged and followed individually throughout the experiment. Initial dosing for standard agents began on Day 0; animals in all groups were dosed by weight (0.01 ml per gram; 10 ml/kg). Dose concentration(s), route(s) of administration and schedule(s) for each group are listed in the Experimental Design section, wherein “p.o./qd×10” indicates orally (by mouth) daily for 10 days. The experimental design of the human tumor graft model study is presented below in Table 4. “n” indicates the number of animals per group; “ROA” indicates route of administration of the test agent, i.e., the MDM2i drug. Beginning on Day 0, tumor dimensions were measured twice weekly by digital caliper and data including individual and mean estimated tumor volumes (Mean TV±SEM) were recorded for each group. Tumor volume was calculated using the formula (1): TV=width^2×length×0.52. At study completion, percent tumor growth inhibition (% TGI) values were calculated and reported for each treatment group (T) versus control (C) using initial (i) and final (f) tumor measurements and the formula (2): % TGI=1-Tf-Ti/Cf-C. The tumor growth inhibition (TGI) values on the scheduled dates closest to the last administration are summarized Table 5 below. In this example, the study duration was defined by the tumor size of the vehicle control. In some cases, for example, that of CTG-0213 in Table 5, required a longer time period for the tumor to reach a threshold size. As a result, the test animals treated with the MDM2i Compound B were also left for a longer time period, e.g., 40 days in the case of CTG-0213, without MDM2i treatment. […] Thus, the evaluation of TGI was set to be near the end of the treatment period, such as around Day 7-11 (around Day 9).

[4] = system: CTG-0093 Colorectal; assay: as above; type: in vivo, mice; details: 100 mg/kg/dose p.o./qd × 10, TGI evaluation Day 9
Source text: as §2

[5] = system: CTG-0159 NSCLC; assay: as above; type: in vivo, mice; details: 100 mg/kg/dose p.o./qd × 10, TGI evaluation Day 11
Source text: as §2

[6] = system: CTG-0201 Melanoma; assay: as above; type: in vivo, mice; details: 100 mg/kg/dose p.o./qd × 10, TGI evaluation Day 10
Source text: as §2

[7] = system: CTG-0203 Melanoma; assay: as above; type: in vivo, mice; details: 100 mg/kg/dose p.o./qd × 10, TGI evaluation Day 11
Source text: as §2

[8] = system: CTG-0204 Melanoma; assay: as above; type: in vivo, mice; details: 100 mg/kg/dose p.o./qd × 10, TGI evaluation Day 10
Source text: as §2

[9] = system: CTG-0213 Melanoma; assay: as above; type: in vivo, mice; details: 100 mg/kg/dose p.o./qd × 10, TGI evaluation Day 7
Source text: as §2

[10] = system: CTG-0282 Pancreatic; assay: as above; type: in vivo, mice; details: 100 mg/kg/dose p.o./qd × 10, TGI evaluation Day 11
Source text: as §2

[11] = system: CTG-0292 Pancreatic; assay: as above; type: in vivo, mice; details: 100 mg/kg/dose p.o./qd × 10, TGI evaluation Day 11
Source text: as §2

[12] = system: CTG-0500 Melanoma; assay: as above; type: in vivo, mice; details: 100 mg/kg/dose p.o./qd × 10, TGI evaluation Day 7
Source text: as §2

[13] = system: CTG-0501 Melanoma; assay: as above; type: in vivo, mice; details: 100 mg/kg/dose p.o./qd × 10, TGI evaluation Day 11
Source text: as §2

[14] = system: CTG-0502 NSCLC; assay: as above; type: in vivo, mice; details: 100 mg/kg/dose p.o./qd × 10, TGI evaluation Day 10
Source text: as §2

CC[C@@H]1CNC2(CC2)CN1C(=O)[C@@H]1C[C@@H](F)CN1C(=O)C1=C(C(C)C)N2C(=N[C@@](C)(c3ccc(Cl)nc3)[C@H]2c2ccc(Cl)c(F)c2)S1 [Compound A, [(5R,6S)-5-(4-Chloro-3-fluorophenyl)-6-(6-chloropyridin-3-yl)-6-methyl-3-(propan-2-yl)-5,6-dihydroimidazo[2,1-b][1,3]thiazol-2-yl][(2S,4R)-2-{[(6R)-6-ethyl-4,7-diazaspiro[2.5]oct-7-yl]carbonyl}-4-fluoropyrrolidin-1-yl]methanone]
IC50 [1]: > 40 µM
IC50 [2]: 8.33 µM

CC1(C)CCC2(CC1)N[C@@H](C(=O)N[C@@H]1CC[C@@H](C(N)=O)OC1)[C@H](c1ccnc(Cl)c1F)[C@]21C(=O)Nc2cc(Cl)ccc21 [Compound B, (3′R,4′S,5′R)—N-[(3R,6S)-6-carbamoyltetrahydro-2H-pyran-3-yl]-6″-chloro-4′-(2-chloro-3-fluoropyridin-4-yl)-4,4-dimethyl-2″-oxo-1″,2″-dihydrodispiro[cyclohexane-1,2′-pyrrolidine-3′,3″-indole]-5′-carboxamide]
IC50 [1]: 7.2 µM
IC50 [2]: 8.45 µM
% TGI [3]: 19%
% TGI [4]: 53%
% TGI [5]: −13%
% TGI [6]: −10%
% TGI [7]: 98%
% TGI [8]: 51%
% TGI [9]: 87%
% TGI [10]: −30%
% TGI [11]: 54%
% TGI [12]: 104%
% TGI [13]: 101%
% TGI [14]: 122%
